Measurements: patent publication US10632111B2 (priority 2014, dated 2020)

Experiment: Pharmacokinetic properties in SD rats after intramuscular injection
Details: male SD rats, i.m., 90 mg/kg (based on donepezil), oil solvent, plasma, LC/MS/MS
Description: Pharmacokinetic Properties of Compounds of the Present Invention Administered to Rats
In the present embodiment, male SD rats (SPF grade), aged […] and weighing 180 to 220 g, were purchased from Shanghai Slack laboratory Animal Co., Ltd. Throughout the process of the experiment, give the rats free access to food and water.
Adopting grouping of random grouping design, the SD rats for experiments were grouped according to gender and body weight.
The whole blood was collected and placed on ice, followed by centrifugation at 4° C., 8000 rpm and 5 min to collect plasma The plasma was transferred to a 96-well plate and stored at −20° C. until LC-MS/MS examination. Drug concentrations in EDTA (4 mM) anticoagulated plasma of SD rats were determined using LC/MS/MS (Agilent6460). Using WinNonlin 5.2 software, calculate respective relevant pharmacokinetic parameters of each group at each time point after administration according to statistical moment theory.
t1/2 was calculated by the formula t1/2=0.693/λz; λz is an end elimination rate constant derived from the logarithmic concentration—the straight part of the end of time curve, which can be derived from the slope of the logarithmic concentration—the straight part of the end of time curve.

With CCCCCCC(=O)OC1=C(CC2CCN(Cc3ccccc3)CC2)Cc2cc(OC)c(OC)cc21 [Compound 3, Donepezil Heptanoate] the Cmax (measured value) was 44.11 ng/mL, the Tmax (measured value) was 18.00 h and the T1/2 (t1/2=0.693/λz) was 314.18 h.
